# Laboratory results from US11304946B2, “2-hetarylpyrimidine-4-carboxamides as aryl hydrocarbon receptor antagonists” (Bayer Aktiengesellschaft, priority 2017, dated 2022).
# Target: T1, Human AhR (Homo sapiens, UniProt P35869)
# T1 construct: host or cells: U87 glioblastoma cells, stably transfected with DRE-driven firefly luciferase and constitutive renilla reporter constructs
# T1 sequence (P35869 11-848): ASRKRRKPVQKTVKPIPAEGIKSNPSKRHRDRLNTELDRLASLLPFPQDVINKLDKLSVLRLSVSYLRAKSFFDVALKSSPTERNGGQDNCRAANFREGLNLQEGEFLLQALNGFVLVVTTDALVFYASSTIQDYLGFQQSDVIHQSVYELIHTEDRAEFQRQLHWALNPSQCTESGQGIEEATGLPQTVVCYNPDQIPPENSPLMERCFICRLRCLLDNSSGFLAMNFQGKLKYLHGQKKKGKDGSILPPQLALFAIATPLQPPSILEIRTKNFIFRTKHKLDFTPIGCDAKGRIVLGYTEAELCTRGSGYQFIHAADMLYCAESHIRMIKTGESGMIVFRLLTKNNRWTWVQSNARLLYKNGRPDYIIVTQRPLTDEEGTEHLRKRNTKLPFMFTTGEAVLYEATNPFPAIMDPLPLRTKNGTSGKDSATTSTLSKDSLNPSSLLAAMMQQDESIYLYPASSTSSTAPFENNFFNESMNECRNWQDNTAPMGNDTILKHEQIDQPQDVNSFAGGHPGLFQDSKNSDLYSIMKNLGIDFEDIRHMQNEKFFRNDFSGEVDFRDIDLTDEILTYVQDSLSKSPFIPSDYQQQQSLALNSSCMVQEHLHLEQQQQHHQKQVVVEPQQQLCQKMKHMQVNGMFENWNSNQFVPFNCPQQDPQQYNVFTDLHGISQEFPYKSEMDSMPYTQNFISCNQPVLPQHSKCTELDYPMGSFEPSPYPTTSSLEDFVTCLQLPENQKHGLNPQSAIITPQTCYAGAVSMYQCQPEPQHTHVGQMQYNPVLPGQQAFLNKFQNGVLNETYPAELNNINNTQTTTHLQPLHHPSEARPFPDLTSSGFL
# Experiment: Transactivation assay in human cell line (in vitro assay 1: antagonism)
# Assay type: cell-based
# Conditions: U87 glioblastoma cells, AHR inducible (DRE) firefly luciferase reporter, 150 μM kynurenic acid, 20 hours
# Procedure: Transactivation Assay in Human Cell Line (In Vitro Assay 1)
# Transactivation assay was carried out in U87 glioblastoma cells (ATCC) endogenously expressing AHR. In addition the cells were stably transfected with an AHR inducible firefly luciferase reporter gene construct that carried AHR-binding sites (DRE) in its promoter and a renilla reporter gene construct with constitutively active promoter. Kynurenic acid is an endogenous AHR activating ligand and was used to prestimulate test cells prior to testing the antagonistic properties of compounds.
# In Vitro Assay 1: Antagonism in Human Cell Line
# Firefly luciferase and Renilla activity was determined by the DualGlo Luciferase Assay System (Promega, #2920). Renilla activity was used to assess toxic effects of compounds.
row,Compound,IC50 [nM]
1,"Cn1cc(-c2nc(C(=O)N[C@H]3CCC[C@H]3O)cc(-c3ccc(OC(F)(F)F)cc3)n2)cn1 (relative stereo) [Example 91, N-[(cis)-2-hydroxycyclopentyl]-2-(1-methyl-1H-pyrazol-4-yl)-6-[4-(trifluoromethoxy)phenyl]pyrimidine-4-carboxamide]",1.58
2,"Cn1cc(-c2nc(C(=O)N[C@@H]3CS(=O)(=O)C[C@@H]3O)cc(-c3ccc(OC(F)(F)F)cc3)n2)cn1 (relative stereo) [Example 98, N-[(cis)-4-hydroxy-1,1-dioxo-1lambda^6-thiolan-3-yl]-2-(1-methyl-1H-pyrazol-4-yl)-6-[4-(trifluoromethoxy)phenyl]pyrimidine-4-carboxamide]",20.6
3,"Cn1cc(-c2nc(C(=O)N[C@H]3CC[C@H]3O)cc(-c3ccc(OC(F)(F)F)cc3)n2)cn1 (relative stereo) [Example 107, N-[(cis)-2-hydroxycyclobutyl]-2-(1-methyl-1H-pyrazol-4-yl)-6-[4-(trifluoromethoxy)phenyl]pyrimidine-4-carboxamide]",4.57
4,"COc1ccc(-c2nc(C(=O)NCC(C)(C)O)cc(-c3ccc(OC(F)(F)F)cc3)n2)cn1 [Example 14, N-(2-hydroxy-2-methylpropyl)-2-(6-methoxypyridin-3-yl)-6-[4-(trifluoromethoxy)phenyl]pyrimidine-4-carboxamide]",307
5,"CC(C)(O)CNC(=O)c1cc(-c2ccc(OC(F)(F)F)cc2)nc(-c2cnc(C#N)nc2)n1 [Example 23, 2′-cyano-N-(2-hydroxy-2-methylpropyl)-6-[4-(trifluoromethoxy)phenyl][2,5′-bipyrimidine]-4-carboxamide]",> 20000
6,"CC(C)(O)CNC(=O)c1cc(-c2ccc(OC(F)(F)F)cc2)nc(-c2cnn(C3CC3)c2)n1 [Example 26, 2-(1-cyclopropyl-1H-pyrazol-4-yl)-N-(2-hydroxy-2-methylpropyl)-6-[4-(trifluoromethoxy)phenyl]pyrimidine-4-carboxamide]",3960
7,"COc1ccc(-c2nc(C(=O)N[C@@H](C)CO)cc(-c3ccc(OC(F)(F)F)cc3)n2)cn1 [Example 27, N-[(2S)-1-hydroxypropan-2-yl]-2-(6-methoxypyridin-3-yl)-6-[4-(trifluoromethoxy)phenyl]pyrimidine-4-carboxamide]",438
8,"Cc1cscc1-c1nc(C(=O)N[C@@H](C)CO)cc(-c2ccc(OC(F)(F)F)cc2)n1 [Example 29, N-[(2S)-1-hydroxypropan-2-yl]-2-(4-methylthiophen-3-yl)-6-[4-(trifluoromethoxy)phenyl]pyrimidine-4-carboxamide]",15.2
9,"C[C@@H](CO)NC(=O)c1cc(-c2ccc(OC(F)(F)F)cc2)nc(-c2cccs2)n1 [Example 30, N-[(2S)-1-hydroxypropan-2-yl]-2-(thiophen-2-yl)-6-[4-(trifluoromethoxy)phenyl]pyrimidine-4-carboxamide]",6.38
10,"C[C@@H](CO)NC(=O)c1cc(-c2ccc(OC(F)(F)F)cc2)nc(-c2ccsc2)n1 [Example 31, N-[(2S)-1-hydroxypropan-2-yl]-2-(thiophen-3-yl)-6-[4-(trifluoromethoxy)phenyl]pyrimidine-4-carboxamide]",14.5
11,"Cc1ccsc1-c1nc(C(=O)N[C@@H](C)CO)cc(-c2ccc(OC(F)(F)F)cc2)n1 [Example 33, N-[(2S)-1-hydroxypropan-2-yl]-2-(3-methylthiophen-2-yl)-6-[4-(trifluoromethoxy)phenyl]pyrimidine-4-carboxamide]",9.25
12,"C[C@@H](CO)NC(=O)c1cc(-c2ccc(OC(F)(F)F)cc2)nc(-c2ccc(C#N)nc2)n1 [Example 38, 2-(6-cyanopyridin-3-yl)-N-[(2S)-1-hydroxypropan-2-yl]-6-[4-(trifluoromethoxy)phenyl]pyrimidine-4-carboxamide]",4510
13,"Cc1ncc(-c2nc(C(=O)N[C@@H](C)CO)cc(-c3ccc(OC(F)(F)F)cc3)n2)cn1 [Example 42, N-[(2S)-1-hydroxypropan-2-yl]-2′-methyl-6-[4-(trifluoromethoxy)phenyl][2,5′-bipyrimidine]-4-carboxamide]",120
14,"C[C@@H](CO)NC(=O)c1cc(-c2ccc(OC(F)(F)F)cc2)nc(-c2cnn(C3CC3)c2)n1 [Example 44, 2-(1-cyclopropyl-1H-pyrazol-4-yl)-N-[(2S)-1-hydroxypropan-2-yl]-6-[4-(trifluoromethoxy)phenyl]pyrimidine-4-carboxamide]",972
15,"Cc1cn[nH]c1-c1nc(C(=O)N[C@@H](C)CO)cc(-c2ccc(OC(F)(F)F)cc2)n1 [Example 45, N-[(2S)-1-hydroxypropan-2-yl]-2-(4-methyl-1H-pyrazol-5-yl)-6-[4-(trifluoromethoxy)phenyl]pyrimidine-4-carboxamide]",57.2
16,"COc1ccc(-c2nc(C(=O)NCC(C)(C)O)cc(-c3ccc(Cl)cc3)n2)cn1 [Example 46, 6-(4-chlorophenyl)-N-(2-hydroxy-2-methylpropyl)-2-(6-methoxypyridin-3-yl)pyrimidine-4-carboxamide]",431
17,"C[C@@H](CO)NC(=O)c1cc(-c2ccc(Cl)cc2)nc(-c2cccs2)n1 [Example 50, 6-(4-chlorophenyl)-N-[(2S)-1-hydroxypropan-2-yl]-2-(thiophen-2-yl)pyrimidine-4-carboxamide]",5.91
18,"Cc1noc(C)c1-c1nc(C(=O)NCC(C)(C)O)cc(-c2ccc(Cl)cc2)n1 [Example 56, 6-(4-chlorophenyl)-2-(3,5-dimethyl-1,2-oxazol-4-yl)-N-(2-hydroxy-2-methylpropyl)pyrimidine-4-carboxamide]",965
19,"CC(C)(O)CNC(=O)c1cc(-c2ccc(Cl)cc2)nc(-c2cc[nH]n2)n1 [Example 58, 6-(4-chlorophenyl)-N-(2-hydroxy-2-methylpropyl)-2-(1H-pyrazol-3-yl)pyrimidine-4-carboxamide]",328
20,"CC(C)(O)CNC(=O)c1cc(-c2ccc(Cl)cc2)nc(-c2ccc(C#N)nc2)n1 [Example 59, 6-(4-chlorophenyl)-2-(6-cyanopyridin-3-yl)-N-(2-hydroxy-2-methylpropyl)pyrimidine-4-carboxamide]",6870
21,"Cc1n[nH]cc1-c1nc(C(=O)NCC(C)(C)O)cc(-c2ccc(Cl)cc2)n1 [Example 65, 6-(4-chlorophenyl)-N-(2-hydroxy-2-methylpropyl)-2-(3-methyl-1H-pyrazol-4-yl)pyrimidine-4-carboxamide]",355
22,"Cc1nn(C)cc1-c1nc(C(=O)NCC(C)(C)O)cc(-c2ccc(Cl)cc2)n1 [Example 66, 6-(4-chlorophenyl)-2-(1,3-dimethyl-1H-pyrazol-4-yl)-N-(2-hydroxy-2-methylpropyl)pyrimidine-4-carboxamide]",50.1
23,"CC(C)(O)CNC(=O)c1cc(-c2ccc(Cl)cc2)nc(-c2cnc(Cl)nc2)n1 [Example 67, 2′-chloro-6-(4-chlorophenyl)-N-(2-hydroxy-2-methylpropyl)[2,5′-bipyrimidine]-4-carboxamide]",12600
24,"COc1ccc(-c2nc(C(=O)N[C@@H](C)CO)cc(-c3ccc(Cl)cc3)n2)cn1 [Example 69, 6-(4-chlorophenyl)-N-[(2S)-1-hydroxypropan-2-yl]-2-(6-methoxypyridin-3-yl)pyrimidine-4-carboxamide]",342
25,"CC(C)Cn1cc(-c2nc(C(=O)N[C@@H](C)CO)cc(-c3ccc(Cl)cc3)n2)cn1 [Example 77, 6-(4-chlorophenyl)-N-[(2S)-1-hydroxypropan-2-yl]-2-[1-(2-methylpropyl)-1H-pyrazol-4-yl]pyrimidine-4-carboxamide]",1180
26,"C[C@@H](CO)NC(=O)c1cc(-c2ccc(Cl)cc2)nc(-c2ccc(C#N)nc2)n1 [Example 78, 6-(4-chlorophenyl)-2-(6-cyanopyridin-3-yl)-N-[(2S)-1-hydroxypropan-2-yl]pyrimidine-4-carboxamide]",741
27,"C[C@@H](CO)NC(=O)c1cc(-c2ccc(Cl)cc2)nc(-c2cn[nH]c2)n1 [Example 81, 6-(4-chlorophenyl)-N-[(2S)-1-hydroxypropan-2-yl]-2-(1H-pyrazol-4-yl)pyrimidine-4-carboxamide]",1040
28,"Cc1n[nH]cc1-c1nc(C(=O)N[C@@H](C)CO)cc(-c2ccc(Cl)cc2)n1 [Example 82, 6-(4-chlorophenyl)-N-[(2S)-1-hydroxypropan-2-yl]-2-(3-methyl-1H-pyrazol-4-yl)pyrimidine-4-carboxamide]",215
